{"source": "patent EP0661044A1", "about": "(priority 1991, dated 1993)", "assay": "Entrapment of daunorubicin in distearoyl phosphatidylcholine-cholesterol vesicles using ethylenediamine citrate (ion-exchange loading)", "format": "physicochemical", "conditions": "lipid:drug ratio approximately at least 16:1 (mol/mol as printed); 65°C for about 10 minutes; typical value", "method": "A dry powder containing a homogenous dispersion of cholesterol and distearoylphosphatidylcholine at a 1:2 molar ratio was prepared by evaporation from a 1:1 chloroform/methanol solution. […] The lipid concentration in the resulting suspension was about 20 to 25 mg/ml. This mixture was then heated to 65°C. Next, while maintaining that temperature, the mixture was homogenized using a sonicator to produce a suspension of small unilamellar vesicles. The vesicles thus obtained had diameters principally in the range of about 40 to 80 nm with little or no particles in excess of 100 nm.\nFollowing homogenization, the mixture underwent a buffer exchange to remove the external, unentrapped, ethylenediamine citrate. This was accomplished by subjecting the mixture to tangential flow ultrafiltration. This process removes water and small molecular weight solutes while retaining lipid vesicles and their contents. Using this process, the lactose/ethylenediamine citrate buffer external to the vesicles was replaced with 250 mM lactose/50 mM glycine. The vesicle preparation was heated to about 65°C and an amount of daunorubicin (base or suitable salt form) was added to yield a lipid to drug ratio in the range of about 16:1 to 19:1 or more (w/w), but preferably 17.4:1. […]", "data": [{"smiles": "COc1cccc2c1C(=O)c1c(O)c3c(c(O)c1C2=O)C[C@@](O)(C(C)=O)C[C@@H]3O[C@H]1C[C@H](N)[C@H](O)[C@H](C)O1", "note": "[daunorubicin]", "values": [{"measurement": "added daunorubicin vesicle entrapped as daunorubicin-citrate", "value": "greater than 90%"}]}]}
